Test results as given in publication PMC11676667, “Pharmacokinetics of Oral Cannabinoid Δ8-Tetrahydrocannabivarin and Its Main Metabolites in Healthy Participants” (Pharmaceuticals, 2024).
Where two headings read alike, the source gives them in different places.

Test: Plasma pharmacokinetics after single oral dose of Δ8-THCV in MCT oil (LC-MS/MS, non-compartmental analysis)
Type: in vivo, human
Design: Clast (last quantifiable concentration): unit not given here
Settings: for Clast (last quantifiable concentration) / tlast (time to last quantifiable concentration) / concentration at 0.5 h / concentration at 1 h / concentration at 2 h / concentration at 4 h / concentration at 6 h / concentration at 8 h / AUC(0-t) / Cmax / MRT / Tmax: plasma; for plasma concentration: Predose; for concentration at 0.5 h / concentration at 1 h / concentration at 2 h / concentration at 4 h / concentration at 6 h / concentration at 8 h / AUC(0-t) / Cmax / MRT / Tmax: human; for concentration at 0.5 h / concentration at 1 h / concentration at 2 h / concentration at 4 h / concentration at 6 h / concentration at 8 h: oral; for AUC(0-t) / Cmax / MRT / Tmax: po; for MRT: read-out: MRT (mean residence time); for Tmax: read-out: tmax
Outline: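 Healthy participants received single oral Δ8-THCV in MCT oil (50 mg/mL; 12.5-200 mg, or placebo) after a high-fat, high-calorie breakfast, with ≥1-week washout. Plasma (K2EDTA) sampled predose and 0.5-8 h post-dose, assayed by validated LC-MS/MS including metabolites; PK by non-compartmental analysis, sub-LLOQ values set to 0.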

[1] = 100 mg single oral Δ8-THCV in MCT oil, Mean (±SD)
[2] = 100 mg single oral Δ8-THCV in MCT oil, Median (Range)
[3] = 200 mg single oral Δ8-THCV in MCT oil, Mean (±SD)
[4] = 200 mg single oral Δ8-THCV in MCT oil, Median (Range)
[5] = 12.5 mg, 12.5 mg Δ8-THCV dose, Mean (SD, %CV)
[6] = 12.5 mg, 12.5 mg Δ8-THCV dose, Median (IQ Range)
[7] = 25 mg, 25 mg Δ8-THCV dose, Mean (SD, %CV)
[8] = 25 mg, 25 mg Δ8-THCV dose, Median (IQ Range)
[9] = 50 mg, 50 mg Δ8-THCV dose, Mean (SD, %CV)
[10] = 50 mg, 50 mg Δ8-THCV dose, Median (IQ Range)
[11] = 100 mg, 100 mg Δ8-THCV dose, Mean (SD, %CV)
[12] = 100 mg, 100 mg Δ8-THCV dose, Median (IQ Range)
[13] = 200 mg, 200 mg Δ8-THCV dose, Mean (SD, %CV)
[14] = 200 mg, 200 mg Δ8-THCV dose, Median (IQ Range)
[15] = 100 mg, 100 mg single oral Δ8-THCV in MCT oil, Mean (±SD)
[16] = 100 mg, 100 mg single oral Δ8-THCV in MCT oil, Median (Range)
[17] = 200 mg, 200 mg single oral Δ8-THCV in MCT oil, Mean (±SD)
[18] = 200 mg, 200 mg single oral Δ8-THCV in MCT oil, Median (Range)

In the case of `CCCc1cc(O)c2c(c1)OC(C)(C)[C@@H]1CCC(C)=C[C@@H]21` [Δ9-THCV, Δ9-tetrahydrocannabivarin], the “Clast (last quantifiable concentration)” value [1] is reported as 1.1 (±0.5), the “tlast (time to last quantifiable concentration)” value (“tlast” for short) [1] is reported as 4.8 (±1.5) and the “Clast (last quantifiable concentration)” value [2] is reported as 0.8 (0.5–1.9). The “tlast” value [2] was 5 (2–6), the “Clast (last quantifiable concentration)” value [3] was 1.5 (±1) and the “tlast” value [3] was 6.2 (±2.1). For the same molecule, the “Clast (last quantifiable concentration)” value [4] was 1.4 (0.5–4.1), the “tlast” value [4] was 6 (2–8) and the plasma concentration (12.5 mg Δ8-THCV dose, Mean (SD, %CV)) was 0 (±0, --) ng/mL. The plasma concentration (12.5 mg Δ8-THCV dose, Median (IQ Range)) was 0 (0–0) ng/mL, the plasma concentration (25 mg Δ8-THCV dose, Mean (SD, %CV)) was 0 (±0, --) ng/mL and the plasma concentration (25 mg Δ8-THCV dose, Median (IQ Range)) was 0 (0–0) ng/mL. For the same molecule, the plasma concentration (50 mg Δ8-THCV dose, Mean (SD, %CV)) was 0 (±0, --) ng/mL, the plasma concentration (50 mg Δ8-THCV dose, Median (IQ Range)) was 0 (0–0) ng/mL and the plasma concentration (100 mg Δ8-THCV dose, Mean (SD, %CV)) was 0 (±0, --) ng/mL. The plasma concentration (100 mg Δ8-THCV dose, Median (IQ Range)) was 0 (0–0) ng/mL, the plasma concentration (200 mg Δ8-THCV dose, Mean (SD, %CV)) was 0 (±0, --) ng/mL and the plasma concentration (200 mg Δ8-THCV dose, Median (IQ Range)) was 0 (0–0) ng/mL. The concentration at 0.5 h [5] was 0 ng/mL, the concentration at 0.5 h [6] was 0 ng/mL and the concentration at 1 h [5] was 0 ng/mL. The concentration at 1 h [6] was 0 ng/mL, the concentration at 2 h [5] was 0 ng/mL and the concentration at 2 h [6] was 0 ng/mL. For the same molecule, the concentration at 4 h [5] was 0 ng/mL, the concentration at 4 h [6] was 0 ng/mL and the concentration at 6 h [5] was 0 ng/mL. The concentration at 6 h [6] was 0 ng/mL, the concentration at 8 h [5] was 0 ng/mL and the concentration at 8 h [6] was 0 ng/mL. For the same molecule, the concentration at 0.5 h [7] was 0 ng/mL, the concentration at 0.5 h [8] was 0 ng/mL and the concentration at 1 h [7] was 0 ng/mL. The concentration at 1 h [8] was 0 ng/mL, the concentration at 2 h [7] was 0 ng/mL and the concentration at 2 h [8] was 0 ng/mL. The concentration at 4 h [7] was 0 ng/mL, the concentration at 4 h [8] was 0 ng/mL and the concentration at 6 h [7] was 0 ng/mL. For the same molecule, the concentration at 6 h [8] was 0 ng/mL, the concentration at 8 h [7] was 0 ng/mL and the concentration at 8 h [8] was 0 ng/mL. The concentration at 0.5 h [9] was 0 ng/mL, the concentration at 0.5 h [10] was 0 ng/mL and the concentration at 1 h [9] was 0 ng/mL. For the same molecule, the concentration at 1 h [10] was 0 ng/mL, the concentration at 2 h [9] was 0 ng/mL and the concentration at 2 h [10] was 0 ng/mL. It also gave a concentration at 4 h [9] of 0 ng/mL, a concentration at 4 h [10] of 0 ng/mL and a concentration at 6 h [9] of 0.1 ng/mL. For the same molecule, the concentration at 6 h [10] was 0 ng/mL, the concentration at 8 h [9] was 0 ng/mL and the concentration at 8 h [10] was 0 ng/mL. For the same molecule, the concentration at 0.5 h [11] was 0 ng/mL, the concentration at 0.5 h [12] was 0 ng/mL and the concentration at 1 h [11] was 0.1 ng/mL. It also gave a concentration at 1 h [12] of 0 ng/mL, a concentration at 2 h [11] of 0.1 ng/mL and a concentration at 2 h [12] of 0 ng/mL. The concentration at 4 h [11] was 0.3 ng/mL, the concentration at 4 h [12] was 0 ng/mL and the concentration at 6 h [11] was 0.3 ng/mL. For the same molecule, the concentration at 6 h [12] was 0 ng/mL, the concentration at 8 h [11] was 0 ng/mL and the concentration at 8 h [12] was 0 ng/mL. It also gave a concentration at 0.5 h [13] of 0 ng/mL, a concentration at 0.5 h [14] of 0 ng/mL and a concentration at 1 h [13] of 0 ng/mL. For the same molecule, the concentration at 1 h [14] was 0 ng/mL, the concentration at 2 h [13] was 0.6 ng/mL and the concentration at 2 h [14] was 0 ng/mL. For the same molecule, the concentration at 4 h [13] was 0.9 ng/mL, the concentration at 4 h [14] was 0.7 ng/mL and the concentration at 6 h [13] was 0.7 ng/mL. It also gave a concentration at 6 h [14] of 0.6 ng/mL, a concentration at 8 h [13] of 0.6 ng/mL and a concentration at 8 h [14] of 0 ng/mL. For the same molecule, the AUC(0-t) [15] was 1.4 ng·h/mL, the Cmax [15] was 1.1 ng/mL and the AUC(0-t) [16] was 1.2 ng·h/mL. The Cmax [16] was 0.9 ng/mL, the MRT [15] was 4.4 h and the Tmax [15] was 4.6 h. It also gave an MRT [16] of 4.4 h, a Tmax [16] of 5 h and an AUC(0-t) [17] of 4.8 ng·h/mL. For the same molecule, the Cmax [17] was 2 ng/mL, the AUC(0-t) [18] was 4.5 ng·h/mL and the Cmax [18] was 1.7 ng/mL. The MRT [17] was 4.5 h, the Tmax [17] was 4.9 h and the MRT [18] was 4.6 h. For the same molecule, the Tmax [18] was 4 h, the “number of positive plasma samples” value (of 504 plasma samples from 15 participants after oral Δ8-THCV) was 42 and the “concentration in representative plasma sample” value (one subject after oral Δ8-THCV in MCT oil, Figure A1) was 2.4 ng/mL.
